In patent US12655125B2 (SIRONAX LTD., priority 2020, dated 2026) one finds EC50 data, which are given here for 19 compounds.

For the first assay, the system named is HT-29 cells. The assay can be described thus: HT29 Cells 0FBS Assay In Vitro (TNF-α/SMAC mimetic/zVAD-FMK induced necroptosis, CellTiter-Glo cell viability). The class given is cell-based. Particulars: Homo sapiens, HT-29, 20 h, read-out: Cell activity (EC50) of Compounds 117-281. The essentials:
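Viability was measured by ATP luminescence (CellTiter-Glo) after 20 h at 37° C of compound exposure in 10-point, 1:3 dilutions. Necroptosis in FBS-free HT-29 cultures was driven by a TNF-α (10 ng/ml), SMAC mimetic (6 μM) and zVAD-FMK (10 μM) cocktail. EC50 values are geometric means from duplicate curves.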
(In general: Cellular ATP, detected with luciferase, serves as a proxy for viable cell number.)
The term EC50 denotes the concentration giving half of the maximal effect. As for `CC(=O)Nc1cc(-c2cc(OC3CN(C(=O)N4N=CC[C@H]4c4cc(F)cc(F)c4)C3)c(F)cn2)n(C)n1` [compound 135], the EC50 was 0.1 to 100 nM.

Still in this assay, the particulars now being: Homo sapiens; HT-29 cells, FBS free medium, TNF-α (10 ng/ml), SMAC mimetic (6 uM), zVAD-FMK (10 μM), 20 hours; geometric mean EC50; read-out: Cell activity (EC50) of Compounds 117-281.
`CC(C)NC(=O)c1cnn(C)c1-c1cc(OC2CN(C(=O)N3N=CC[C@H]3c3cc(F)cc(F)c3)C2)c(F)cn1` [compound 133, (S)-5-(4-((1-(5-(3,5-difluorophenyl)-4,5-dihydro-1H-pyrazole-1-carbonyl)azetidin-3-yl)oxy)-5-fluoropyridin-2-yl)-N-isopropyl-1-methyl-1H-pyrazole-4-carboxamide]: the EC50 was in the range of 0.1 to 100 nM. Still for that read-out and setting: with `Cn1ncc(C(=O)NC2CC2)c1-c1cc(OC2CN(C(=O)N3N=CC[C@H]3c3cc(F)cc(F)c3)C2)c(F)cn1` [compound 134, (S)—N-cyclopropyl-5-(4-((1-(5-(3,5-difluorophenyl)-4,5-dihydro-1H-pyrazole-1-carbonyl)azetidin-3-yl)oxy)-5-fluoropyridin-2-yl)-1-methyl-1H-pyrazole-4-carboxamide] the figure was 0.1 to 100 nM. On the same count and under the same terms, to `CC(=O)N(C(C)=O)c1cc(-c2cc(OC3CN(C(=O)N4N=CC[C@H]4c4cc(F)cc(F)c4)C3)c(F)cn2)n(C)n1` [compound 136, (S)—N-acetyl-N-(5-(4-((1-(5-(3,5-difluorophenyl)-4,5-dihydro-1H-pyrazole-1-carbonyl)azetidin-3-yl)oxy)-5-fluoropyridin-2-yl)-1-methyl-1H-pyrazol-3-yl)acetamide] belongs 0.1 to 100 nM.

Turning to `Cn1nc(NC(=O)C2CC2)cc1-c1cc(OC2CN(C(=O)N3N=CC[C@H]3c3cc(F)cc(F)c3)C2)c(F)cn1` [compound 137, (S)—N-(5-(4-((1-(5-(3,5-difluorophenyl)-4,5-dihydro-1H-pyrazole-1-carbonyl)azetidin-3-yl)oxy)-5-fluoropyridin-2-yl)-1-methyl-1H-pyrazol-3-yl)cyclopropanecarboxamide], the EC50 is 0.1 to 100 nM. The same measure, in the same setting: with `Cc1nn(-c2cc(OC3CN(C(=O)N4N=CC[C@H]4c4cc(F)cc(F)c4)C3)c(F)cn2)c(C)c1NC(=O)C1CCOCC1` [compound 138] the figure was 0.1 to 100 nM. On the same count and under the same terms, with `Cc1nn(-c2cc(OC3CN(C(=O)N4N=CC[C@H]4c4cc(F)cc(F)c4)C3)c(F)cn2)c(C)c1NC(=O)C1CC1` [compound 139, (S)—N-(1-(4-((1-(5-(3,5-difluorophenyl)-4,5-dihydro-1H-pyrazole-1-carbonyl)azetidin-3-yl)oxy)-5-fluoropyridin-2-yl)-3,5-dimethyl-1H-pyrazol-4-yl)cyclopropanecarboxamide] the figure was 0.1 to 100 nM; with `CC(=O)Nc1c(C)nn(-c2cc(OC3CN(C(=O)N4N=CC[C@H]4c4cc(F)cc(F)c4)C3)c(F)cn2)c1C` [compound 140, (S)—N-(1-(4-((1-(5-(3,5-difluorophenyl)-4,5-dihydro-1H-pyrazole-1-carbonyl)azetidin-3-yl)oxy)-5-fluoropyridin-2-yl)-3,5-dimethyl-1H-pyrazol-4-yl)acetamide], 0.1 to 100 nM. Turning to `CC(C)NC(=O)Nc1cnn(C)c1-c1cc(OC2CN(C(=O)N3N=CC[C@H]3c3cc(F)cc(F)c3)C2)c(F)cn1` [compound 141, (S)-1-(5-(4-((1-(5-(3,5-difluorophenyl)-4,5-dihydro-1H-pyrazole-1-carbonyl)azetidin-3-yl)oxy)-5-fluoropyridin-2-yl)-1-methyl-1H-pyrazol-4-yl)-3-isopropylurea], the EC50 lay within 0.1 to 100 nM. On the same count and under the same terms, with `CNC(=O)Nc1cnn(C)c1-c1cc(OC2CN(C(=O)N3N=CC[C@H]3c3cc(F)cc(F)c3)C2)c(F)cn1` [compound 142, (S)-1-(5-(4-((1-(5-(3,5-difluorophenyl)-4,5-dihydro-1H-pyrazole-1-carbonyl)azetidin-3-yl)oxy)-5-fluoropyridin-2-yl)-1-methyl-11H-pyrazol-4-yl)-3-methylurea] the figure was 0.1 to 100 nM; with `Cc1ncc(C#N)n1-c1cc(OC2CN(C(=O)N3N=CC[C@H]3c3cc(F)cc(F)c3)C2)c(F)cn1` [compound 143, (S)-1-(4-((1-(5-(3,5-difluorophenyl)-4,5-dihydro-1H-pyrazole-1-carbonyl)azetidin-3-yl)oxy)-5-fluoropyridin-2-yl)-2-methyl-1H-imidazole-5-carbonitrile], 0.1 to 100 nM; with `Cc1c(NC(=O)C2CC2)nn(C)c1-c1cc(OC2CN(C(=O)N3N=CC[C@H]3c3cc(F)cc(F)c3)C2)c(F)cn1` [compound 144, (S)—N-(5-(4-((1-(5-(3,5-difluorophenyl)-4,5-dihydro-1H-pyrazole-1-carbonyl)azetidin-3-yl)oxy)-5-fluoropyridin-2-yl)-1,4-dimethyl-1H-pyrazol-3-yl)cyclopropanecarboxamide], 0.1 to 100 nM.

As for `Cc1c(NCC(N)=O)nn(C)c1-c1cc(OC2CN(C(=O)N3N=CC[C@H]3c3cc(F)cc(F)c3)C2)c(F)cn1` [compound 145, (S)-2-((5-(4-((1-(5-(3,5-difluorophenyl)-4,5-dihydro-1H-pyrazole-1-carbonyl)azetidin-3-yl)oxy)-5-fluoropyridin-2-yl)-1,4-dimethyl-1H-pyrazol-3-yl)amino)acetamide], the EC50 was 0.1 to 100 nM. `Cn1ccnc1-c1cc(OC2CN(C(=O)N3N=CC[C@H]3c3cc(F)cc(F)c3)C2)c(F)cn1` [compound 146, (S)-(5-(3,5-difluorophenyl)-4,5-dihydro-1H-pyrazol-1-yl)(3-((5-fluoro-2-(1-methyl-1H-imidazol-2-yl)pyridin-4-yl)oxy)azetidin-1-yl)methanone]: the 50% effective concentration (EC50) was in the range of 0.1 to 100 nM.

Turning to `Cc1ccc(C)n1-c1cc(OC2CN(C(=O)N3N=CC[C@H]3c3cc(F)cc(F)c3)C2)c(F)cn1` [compound 147, (S)-(5-(3,5-difluorophenyl)-4,5-dihydro-1H-pyrazol-1-yl)(3-((2-(2,5-dimethyl-1H-pyrrol-1-yl)-5-fluoropyridin-4-yl)oxy)azetidin-1-yl)methanone], the EC50 was in the range of 0.1 to 100 nM. Turning to `Cc1nn(-c2cc(OC3CN(C(=O)N4N=CC[C@H]4c4cc(F)cc(F)c4)C3)c(F)cn2)c(C)c1CO` [compound 148, (S)-(5-(3,5-difluorophenyl)-4,5-dihydro-1H-pyrazol-1-yl)(3-((5-fluoro-2-(4-(hydroxymethyl)-3,5-dimethyl-1H-pyrazol-1-yl)pyridin-4-yl)oxy)azetidin-1-yl)methanone], the EC50 lay in the range of 0.1 to 100 nM.

For the compound `Cn1ncc(C(N)=O)c1-c1ccc(F)c(OC2CN(C(=O)N3N=CC[C@H]3c3cc(F)cc(F)c3)C2)n1` [compound 149, (S)-5-(6-((1-(5-(3,5-difluorophenyl)-4,5-dihydro-1H-pyrazole-1-carbonyl)azetidin-3-yl)oxy)-5-fluoropyridin-2-yl)-1-methyl-1H-pyrazole-4-carboxamide], the EC50 is 0.1 to 100 nM. The same measure, in the same setting: to `Cc1c(C#N)nn(C)c1-c1cc(OC2CN(C(=O)N3N=CC[C@H]3c3cc(F)cc(F)c3)C2)c(F)cn1` [compound 150, (S)-5-(4-((1-(5-(3,5-difluorophenyl)-4,5-dihydro-1H-pyrazole-1-carbonyl)azetidin-3-yl)oxy)-5-fluoropyridin-2-yl)-1,4-dimethyl-1H-pyrazole-3-carbonitrile] belongs 0.1 to 100 nM.

Turning to `Cc1nn(-c2cc(OC3CN(C(=O)N4N=CC[C@H]4c4cc(F)cc(F)c4)C3)c(F)cn2)c(C)c1C#N` [compound 151, (S)-1-(4-((1-(5-(3,5-difluorophenyl)-4,5-dihydro-1H-pyrazole-1-carbonyl)azetidin-3-yl)oxy)-5-fluoropyridin-2-yl)-3,5-dimethyl-1H-pyrazole-4-carbonitrile], the EC50 fell in the range of 0.1 to 100 nM.
